Reference: PubChem BioAssay AID2060497 (Molecular Pharmacology Branch, DTP, NCI, 2025)
Several values for one entry are separate records, joined by “and”; a condition that tells them apart may be missing. Equal entries are not always repeated.

Tested on: 317291-083-R-J1-PDC complex spheroids, viability
Assay: Anticancer human tumor 317291-083-R-J1-PDC patient-derived soft tissue sarcoma cell line growth inhibition [GQUAD]
Conditions: for viability, T/C: stronger effect = lower value
Source text: DNA G-quadruplex Stabilizer Agents in Combinations in Complex Spheroids
A high-throughput screen of multi-cell type tumor spheroids was designed to identify active combinations of DNA G-quadruplex stabilizer agents and targeted small molecules. Complex spheroids include a stromal component modeled by human endothelial cells (HUVEC) and fibroblasts modeled by human mesenchymal stem cells (MSCs). The concentration ranges selected for each drug and investigational agent were based upon clinically achievable concentrations if the clinical Cmax of the agent was known.
Compounds. The drugs and investigational agents: pidnarulex (CX-5461; NSC782164), APTO-253 (NSC789042), BRACO-19 (NSC847499), peposertib (NSC802822), ceralasertib (NSC780249), elimusertib (NSC800525), camonsertib (NSC841442), AZD-1390 (NSC803789), olaparib (NSC753686), talazoparib (NSC767125), ART-558 (NSC835418), sotorasib (NSC818433), MRTX-1133 (NSC836407), SN-38 (NSC673596), topotecan (NSC609699), etoposide (NSC141540), doxorubicin (NSC123127), gemcitabine (NSC613327), 5-fluorouracil (NSC19893), paclitaxel (NSC125973), vemurafenib (NSC761431), panobinostat (NSC761190), R-306465 (JNJ-16241199; NSC773264), adavosertib (NSC754352), TP-3654 (NSC805149), carboplatin (NSC241240), KSQ-4279 (NSC840948), and staurosporine (NSC755774) were obtained from the National Cancer Institute (NCI) Developmental Therapeutics Program Chemical Repository (34). The FDA-approved anticancer drug set is available from the NCI Developmental Therapeutics Program. […] The stock solutions were prepared in dimethyl sulfoxide (DMSO, Sigma-Aldrich, St. Louis, MO, cat. D2650) at 800-fold the tested concentration and stored at -70 degrees C prior to their use. All drugs and investigational agents were tested over a range starting from a high concentration at or near the clinical Cmax and decreasing in half-log increments. If the clinical Cmax for an agent had not been determined, the highest concentration tested was 10 microM.
2.3 Cell Culture. All cells were maintained in an incubator at 37 degrees C and 5% CO2 with 95% humidity. The PDC lines were cultured according to standard operating procedures established by the NCI PDMR. All PDCs were thawed and cultured in Matrigel-coated flasks prepared with a working solution of 1X Ham's F-12 nutrient mix, without supplementation (Invitrogen, cat. 11765054), 100 U/mL penicillin-streptomycin (Invitrogen, cat. 15140122), and 2.5% Matrigel (Corning Inc., cat. 354248) for the first three passages. The 857933-349-R-J2-PDC line was cultured in 6C/Colon 1B media, which includes advanced DMEM/F-12 (Thermo Fisher Scientific, cat. 12634028), 10 mM HEPES (Thermo Fisher Scientific, cat. 15630080), 1X GlutaMAX supplement (Thermo Fisher Scientific, cat. 35050061), 0.1 mg/mL primocin (InvivoGen, cat. ant-pm-2), 10% defined fetal bovine serum, heat inactivated (HyClone Laboratories Inc., cat. SH30070.03HI), 50% L-WRN conditioned media (ATCC, cat. CRL-3276), 1.25 mM N-Acetyl-L-cysteine (Sigma-Aldrich, cat. A9165), 10 mM nicotinamide (Sigma-Aldrich, cat. N0636), 1X B-27 supplement (Thermo Fisher Scientific, cat. 17504044), 1X N-2 supplement (Thermo Fisher Scientific, cat. 17502048), 10 microM Y-27632 dihydrochloride (Tocris Bioscience, cat. 1254), and 50 ng/mL human EGF recombinant protein (Thermo Fisher Scientific, cat. PHG0311). The 485176-168-R4-J1-PDC line was cultured in Panc media, which includes all 6C/Colon 1B media components plus 100 ng/mL human FGF-10 (Thermo Fisher Scientific, cat. 100-26), 500 nM SB-431542 (Selleckchem, cat. S1067), and gastrin (Tocris, cat. 3006).
[…]
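Further: spheroids exposed to compounds for one week before readout.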
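Wherever viability, T/C is given: percent viability relative to DMSO vehicle wells taken as 100%.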

In the case of `Cc1cnc(CNC(=O)c2c(=O)c3ccc(N4CCCN(C)CC4)nc3n3c2sc2ccccc23)cn1`, the viability, T/C (compound 0.0316 µM) is reported as 93.8% [middle of 12 runs], the viability, T/C (compound 0.1 µM) is reported as 68.8% [middle of 12 runs] and the viability, T/C (compound 1 µM) is reported as 31.6% [middle of 12 runs].
Work on `C=CCn1c(=O)c2cnc(Nc3ccc(N4CCN(C)CC4)cc3)nc2n1-c1cccc(C(C)(C)O)n1` + CN(C)c1ccc(Nc2c3ccc(NC(=O)CCN4CCCC4)cc3nc3cc(NC(=O)CCN4CCCC4)ccc23)cc1 yielded an IC50 (curve of first compound, second compound 0.0316 µM) of 147 nM, an IC50 (curve of first compound, second compound 0.1 µM) of 110 nM and an IC50 (curve of first compound, second compound 0.316 µM) of 34.6 nM. For the same compound, the IC50 (curve of first compound, second compound 1 µM) was under 31.6 nM, the IC50 (curve of first compound, second compound 3.16 µM) was under 31.6 nM and the IC50 (curve of first compound, second compound 10 µM) was under 31.6 nM. For the same compound, the viability, T/C (second compound 0.0316 µM, first compound 0.0316 µM) was 87.1%, the viability, T/C (second compound 0.0316 µM, first compound 0.1 µM) was 64.3% and the viability, T/C (second compound 0.0316 µM, first compound 0.316 µM) was 21.7%. For the same compound, the viability, T/C (second compound 0.0316 µM, first compound 1 µM) was 14.2%, the viability, T/C (second compound 0.0316 µM, first compound 3.16 µM) was 8.78% and the viability, T/C (second compound 0.0316 µM, first compound 10 µM) was 8.84%. The viability, T/C (second compound 0.1 µM, first compound 0.0316 µM) was 82.5%, the viability, T/C (second compound 0.1 µM, first compound 0.1 µM) was 52% and the viability, T/C (second compound 0.1 µM, first compound 0.316 µM) was 25.7%. The viability, T/C (second compound 0.1 µM, first compound 1 µM) was 12.4%, the viability, T/C (second compound 0.1 µM, first compound 3.16 µM) was 9.4% and the viability, T/C (second compound 0.1 µM, first compound 10 µM) was 8.71%. The viability, T/C (second compound 0.316 µM, first compound 0.0316 µM) was 51.3%, the viability, T/C (second compound 0.316 µM, first compound 0.1 µM) was 34.4% and the viability, T/C (second compound 0.316 µM, first compound 0.316 µM) was 14.4%. It also gave a viability, T/C (second compound 0.316 µM, first compound 1 µM) of 7.47%, a viability, T/C (second compound 0.316 µM, first compound 3.16 µM) of 7.01% and a viability, T/C (second compound 0.316 µM, first compound 10 µM) of 5.2%. For the same compound, the viability, T/C (second compound 1 µM, first compound 0.0316 µM) was 31.1%, the viability, T/C (second compound 1 µM, first compound 0.1 µM) was 14.4% and the viability, T/C (second compound 1 µM, first compound 0.316 µM) was 8.51%. For the same compound, the viability, T/C (second compound 1 µM, first compound 1 µM) was 2.77%, the viability, T/C (second compound 1 µM, first compound 3.16 µM) was 1.74% and the viability, T/C (second compound 1 µM, first compound 10 µM) was 1.3%. The viability, T/C (second compound 3.16 µM, first compound 0.0316 µM) was 2.02%, the viability, T/C (second compound 3.16 µM, first compound 0.1 µM) was 1.03% and the viability, T/C (second compound 3.16 µM, first compound 0.316 µM) was 0.41%. It also gave a viability, T/C (second compound 3.16 µM, first compound 1 µM) of 3.62%, a viability, T/C (second compound 3.16 µM, first compound 3.16 µM) of 0.31% and a viability, T/C (second compound 3.16 µM, first compound 10 µM) of 0.14%. It also gave a viability, T/C (second compound 10 µM, first compound 0.0316 µM) of 0.27%, a viability, T/C (second compound 10 µM, first compound 0.1 µM) of 0.13% and a viability, T/C (second compound 10 µM, first compound 0.316 µM) of 0.18%. It also gave a viability, T/C (second compound 10 µM, first compound 1 µM) of 0.15%, a viability, T/C (second compound 10 µM, first compound 3.16 µM) of 0.21% and a viability, T/C (second compound 10 µM, first compound 10 µM) of 0.15%.
With `O=C(c1cc(Cc2n[nH]c(=O)c3ccccc23)ccc1F)N1CCN(C(=O)C2CC2)CC1` the viability, T/C (compound 0.0316 µM) was 111% and 115% and 109%, the viability, T/C (compound 0.1 µM) was 96.5% and 83.9% and 97.3% and the viability, T/C (compound 0.316 µM) was 120% and 96.5% and 93.9%. For the same compound, the viability, T/C (compound 1 µM) was 88.7% and 107% and 99.4%, the viability, T/C (compound 3.16 µM) was 87.6% and 84.9% and 93.7% and the viability, T/C (compound 10 µM) was 71% and 58.2% and 59.2%. For the same compound, the IC50 (curve of compound) was over 10000 nM.
